Measurements reported in US10610467B2, “Lightening composition comprising ginseng-derived exosome-like vesicles” (AMOREPACIFIC CORPORATION, priority 2015, dated 2020).

System: Human primary melanocytes
Experiment: Melanin production by human melanocytes irradiated with 20 mJ/cm^2 UVB 2 times, treated with test substances for 2 weeks (Test Example 3)
Assay type: cell-based
Experimental: Human primary melanocytes (Life Technologies, CA, USA) were cultured in M-254 medium (Gibco BRL, NY, USA) supplemented with human melanocyte growth supplement (HMGS; Gibco BRL, NY, USA) under the condition of 37° C. and 5% CO2. After plating the cells on a 100-mm culture dish with 2×10^5 cells per dish and waiting overnight, 20 mJ/cm^2 UVB was radiated 2 times with a 24-hour interval. Then, the cells were cultured for 2 weeks while replacing the medium with one containing the ginseng-derived exosome-like vesicles obtained in Example 1 at concentrations of 0.1 μg/mL, 1 μg/m L, 5 μg/mL or 10 μg/mL once in 4 days. For comparison, positive control groups were treated with 30 μM Melasolv, 1 μM compound K or 2 ppm fermented saponin for 2 weeks in the same manner and melanin production was measured. As negative control groups, melanocytes not treated with UVB and melanocytes treated with UVB but not treated with the test substances were cultured in the same manner. 2 weeks later, the cells were detached from the culture dish and counted. The cells of the same number were collected into a microtube, lysed with a RIPA lysis buffer (Millipore, 20-188) and then centrifuged at 13,500 rpm for 30 minutes. The precipitating pellets were dissolved in 1 N NaOH and photographed for comparison of color. Melanin contents were compared by measuring absorbance at 450 nm.

Row | Compound | Decrease (%) in melanin contents (1 μM) [%] | Decrease (%) in melanin contents (30 μM) [%]
1 | CC(C)=CCC[C@](C)(O[C@@H]1O[C@H](CO)[C@@H](O)[C@H](O)[C@H]1O)[C@H]1CC[C@]2(C)[C@@H]1[C@H](O)C[C@@H]1[C@@]3(C)CC[C@H](O)C(C)(C)[C@@H]3CC[C@]12C [Comp. K, compound K] | 28.3 | –
2 | COc1cc(/C=C/C(=O)Oc2cc(C)ccc2C(C)C)cc(OC)c1OC [Melasolv] | – | 54.0
